Measured values from patent US20240391931A1 (Bristol-Myers Squibb Company, priority 2021, published 2024).

What was measured:
[1] = test system: NCI-H1781 cells; test: Cellular proliferation in NCI-H1781 cells (CellTiter Glo); format: cell-based, human; details: Homo sapiens, 120 h, redosed after 72 h
Protocol: (§1) In addition to the engineered cell lines, the following cell lines were used: BT474 (human breast carcinoma), N87 (human gastric carcinoma), NCI-H1781 (human lung adenocarcinoma), and A431 (human epidermoid carcinoma); all cell lines were obtained from the American Type Culture Collection (ATCC, Manassas, VA). NCI-H1781 were grown in complete RPMI 1640 (Life Technologies, Carlsbad, CA) supplemented with 15% fetal bovine serum (FBS, Life Technologies, Carlsbad, CA) and 1% Penicillin-Streptomycin (P/S, Life Technologies, Carlsbad, CA). N87 cells were grown in complete RPMI 1640 supplemented with 10% FBS and 1% P/S. BT474 and A431 cells were grown in DMEM (Life Technologies, Carlsbad, CA) supplemented with 10% FBS and 1% P/S. All cells were maintained and propagated in a humidified 5% CO2 incubator at 37° C.
Cell proliferation in adherent cells was investigated in two HER2 amplified cell lines (BT474, N87), and a HER2VC expressing cell line (NCI-H1781). BT474, NCI-H1781, and N87 were plated in their appropriate growth media supplemented with either 10% FBS (BT474, N87) or 15% FBS (NCI-H1781) and 1% P/S in 96-well white clear-bottom tissue culture plates (Costar, Sigma-Aldrich). The starting cell densities were 3500, 5500, and 5000 cells for BT474, NCI-H1781, and N87 cells, respectively. An 8-point standard curve with varying cell densities (starting at 50000 cells and serially diluting down 2-fold) was prepared for each cell line and read 6 h after plating. Cells were allowed to attach overnight prior to compound treatment. Compound solutions were prepared by serially diluting test compounds in DMSO (Sigma-Aldrich), then diluting 500× in their corresponding serum free media. Cells were treated by adding a 1:1 volume of test compound to a final concentration of […], 0.004, 0.0014, or 0.0005 μM, in 0.1% DMSO and 5% FBS (for BT474 and N87) or 7.5% FBS (NCI-H1781). In BT474 and NCI-H1781, cell media was replaced and cells were redosed with fresh test compound solutions after 72 h. Viability was determined by CellTiter Glo (Promega, Madison, WI) after 72 h for N87 cells, and after 120 h for BT474 and […] cells. The results were converted to cell numbers using a standard curve; growth inhibition (GI50 values) were determined by Graph Pad Prism. […] The results are provided in Table 4, under columns titled “BT474-GI50”, “N87-GI50”, and “NCI-H1781-GI50”.

[2] = target: T1, HER2 wildtype (WT) protein (Homo sapiens, UniProt P04626); test: HER2 signaling (pHER2 Tyr1248/total HER2 MSD) in N87 cells; format: cell-based; details: 1.5 hr compound, 1% FBS
T1 construct: BT474 and N87 cell lines which endogenously overexpress the HER2 wildtype (WT) protein; endogenous in cells; host or cells: BT474, N87
T1 sequence (P04626 23-1255): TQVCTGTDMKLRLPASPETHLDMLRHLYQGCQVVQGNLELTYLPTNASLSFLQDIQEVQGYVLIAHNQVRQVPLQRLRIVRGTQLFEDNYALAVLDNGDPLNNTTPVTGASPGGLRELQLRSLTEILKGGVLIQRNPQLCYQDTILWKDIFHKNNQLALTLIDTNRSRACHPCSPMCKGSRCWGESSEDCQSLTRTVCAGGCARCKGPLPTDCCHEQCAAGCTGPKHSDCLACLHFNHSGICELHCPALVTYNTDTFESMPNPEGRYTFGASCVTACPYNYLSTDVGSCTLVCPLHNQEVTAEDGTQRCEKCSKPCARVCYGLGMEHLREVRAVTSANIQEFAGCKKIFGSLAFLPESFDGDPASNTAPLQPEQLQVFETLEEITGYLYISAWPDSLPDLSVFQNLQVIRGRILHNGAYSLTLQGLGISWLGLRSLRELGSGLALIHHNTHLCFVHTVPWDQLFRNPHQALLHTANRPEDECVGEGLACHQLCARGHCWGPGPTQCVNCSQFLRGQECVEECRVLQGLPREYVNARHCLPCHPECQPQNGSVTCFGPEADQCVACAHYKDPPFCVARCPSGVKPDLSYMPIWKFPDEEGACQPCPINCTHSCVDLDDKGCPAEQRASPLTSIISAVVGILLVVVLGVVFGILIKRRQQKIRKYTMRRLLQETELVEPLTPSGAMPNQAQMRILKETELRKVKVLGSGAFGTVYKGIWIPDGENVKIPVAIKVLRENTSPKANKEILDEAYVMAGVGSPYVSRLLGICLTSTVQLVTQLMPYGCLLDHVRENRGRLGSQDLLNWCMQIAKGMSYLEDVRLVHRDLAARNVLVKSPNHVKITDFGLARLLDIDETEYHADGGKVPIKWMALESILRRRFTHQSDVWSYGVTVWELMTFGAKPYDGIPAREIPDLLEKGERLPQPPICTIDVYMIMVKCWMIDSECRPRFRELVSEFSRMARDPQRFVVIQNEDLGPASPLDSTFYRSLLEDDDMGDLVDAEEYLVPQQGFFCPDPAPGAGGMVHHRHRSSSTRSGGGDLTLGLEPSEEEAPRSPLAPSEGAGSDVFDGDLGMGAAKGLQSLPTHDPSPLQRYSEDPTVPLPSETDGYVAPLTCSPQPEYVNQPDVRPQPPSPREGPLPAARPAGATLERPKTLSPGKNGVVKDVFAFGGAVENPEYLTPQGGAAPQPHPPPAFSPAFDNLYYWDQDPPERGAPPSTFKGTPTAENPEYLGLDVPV
Protocol: as §1
HER2 signaling was assessed in BT474 and N87 cell lines which endogenously overexpress the HER2 wildtype (WT) protein, in NCI-H1781 cells which endogenously expresses a HER2 mutant protein containing a VC insertion in the kinase domain (HER2VC or G776delinsVC), and in engineered cell lines transduced to express the Her2 mutant protein containing the YVMA insertion (Hek293-HER2YVMA and BEAS2B-HER2YVMA).
BT474, N87, and NCI-H1781 were plated in 96-well tissue-culture treated plates (Corning Costar, Sigma-Aldrich) in full media and incubated overnight. Hek293-HER2YVMA and BEAS2B-HER2YVMA cells were plated in 96-well poly-D-lysine treated plates (BD Bioscience, San Jose, CA). For treatment with test compounds, the media was replaced with corresponding low serum media (1% FBS) containing test compound at 1.1, 0.37, 0.12, 0.041, 0.014, 0.005, 0.0014, 0.0005 μM or DMSO control (0.1%). Cells were incubated with compound for 1.5 hr at 37° C. After compound treatment, the media was removed and cells were lysed for 30 min on ice in complete MSD lysis buffer (prepared using MSD base lysis buffer (Meso-Scale Discovery) supplemented with cOmplete, EDTA-free Protease inhibitor cocktail (Roche), Phosphatase Inhibitor Cocktails 2 and 3 (Sigma-Aldrich), and 1 mM PMSF (Sigma-Aldrich)). Lysates were stored at −70° C. until further analysis.
HER2 signaling was evaluated using phospho (Tyr1248)/total ErbB2 whole cell lysate MSD plates (Meso-Scale Discovery, Gaithersburg, MD). The phospho HER2 signal was normalized to total HER2 for each sample; results are reported as % DMSO control. The normalized data was fitted using a sigmoidal curve analysis program (Graph Pad Prism version 6) with variable Hill slope to determine EC50 values.
The HER2 signaling results are provided in Table 4, under columns titled “BT474-pHER2 EC50”, “N87-pHER2 EC50”, and “NCI-H1781-pHER2 EC50”. Hek293-HER2YVMA ins fall under the heading “HEKYVMA-pHER2 EC50”, Ba/F3 HER2YVMA fall under the heading “Ba/F3 YVMA-pHER2 EC50” and BEAS2B-HER2YVMA fall under the heading “BEAS2B YVMA-pHER2 EC50”.

| SMILES | GI50 ([1]; NCI-H1781 cells) | EC50 [2] | GI50 ([1]; NCI-H1781, NCI-H1781 cells) |
| --- | --- | --- | --- |
| Cc1ccc(Oc2ccc(Nc3ncnc4sc5c(c34)CCN(C(=O)/C=C/CN(C)C)C5)cc2C)cn1 [Compound 8, (E)-4-(Dimethylamino)-1-(4-((3-methyl-4-((6-methylpyridin-3-yl)oxy)phenyl)amino)-5,6-dihydropyrido[4′,3′:4,5]thieno[2,3-d]pyrimidin-7(8H)-yl)but-2-en-1-one] | < 100 nM | < 100 nM |  |
| Cc1ccc(Oc2ccc(Nc3ncnc4sc5c(c34)CCN(C(=O)/C=C/CN3CCOCC3)C5)cc2C)cn1 [Compound 17, (E)-1-(4-((3-Methyl-4-((6-methylpyridin-3-yl)oxy)phenyl)amino)-5,6-dihydropyrido[4′,3′:4,5]thieno[2,3-d]pyrimidin-7(8H)-yl)-4-morpholinobut-2-en-1-one] |  | < 100 nM | < 100 nM |
| COc1ccc(Oc2ccc(Nc3ncnc4sc5c(c34)CN(C(=O)/C=C/CN(C)C)C5)cc2C)cn1 [Compound 128, (E)-4-(dimethylamino)-1-(4-((4-((6-methoxypyridin-3-yl)oxy)-3-methylphenyl)amino)-5,7-dihydro-6H-pyrrolo[3′,4′:4,5]thieno[2,3-d]pyrimidin-6-yl)but-2-en-1-one] |  | < 100 nM | < 100 nM |
| Cc1ccc(Oc2ccc(Nc3ncnc4sc5c(c34)CN(C(=O)/C=C/CN(C)C)C5)cc2Cl)cn1 [Compound 129, (E)-1-(4-((3-Chloro-4-((6-methylpyridin-3-yl)oxy)phenyl)amino)-5H-pyrrolo[3′,4′:4,5]thieno[2,3-d]pyrimidin-6(7H)-yl)-4-(dimethylamino)but-2-en-1-one] |  | < 100 nM | < 100 nM |
